Experimental findings from US10669272B2, “Substituted naphthyridinone compounds useful as T cell activators” (BRISTOL-MYERS SQUIBB COMPANY, priority 2018, dated 2020) are described below.

For one assay, the system named is Human venous whole blood. As to the kind of experiment: Human whole blood IFN-γ assay.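 Further: blood from healthy donors exposed to compound for 1 h before stimulation with anti-CD3 and anti-CD28 at 1 µg/mL each, IFN-γ quantified in supernatant by AlphaLISA.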 To be noted: human whole blood, read-out: INFg Whole Blood Normalized Agonist EC50. Type of assay: cell-based.
The next assay deals with T1, human DGKα (Homo sapiens, UniProt P23743).
T1 construct: TVMV protease cleavage site (C); Hexa-His (C); made in house; host or cells: Sf9 insect cells (baculovirus, Bac-to-Bac)
As to the kind of experiment: DGKα LIPGLO assay (extruded liposome substrate), in vitro DGK inhibition. Type of assay: biochemical. To be noted: read-out: DGKa LIPGLO IC50.

The next assay concerns the target T2, human DGKζ (Homo sapiens, UniProt Q13574).
T2 construct: TVMV protease cleavage site (C); Hexa-His (C); made in house; host or cells: Sf9 insect cells (baculovirus, Bac-to-Bac)
As to the kind of experiment: DGKζ LIPGLO assay (extruded liposome substrate), in vitro DGK inhibition. Type of assay: biochemical. To be noted: read-out: DGKz LIPGLO IC50.

Setting [1] is: Homo sapiens, 24 h, normalized to 3 μM reference compound with anti-CD3 plus anti-CD28 as 100% activation.
Where [2] appears, read: Homo sapiens, 24 h, anti-CD3 plus anti-CD28, 24 hours, 3 μM reference compound = 100% activation.
[3] abbreviates: normalized to 3 μM reference compound with anti-CD3 plus anti-CD28 as 100% activation.

Like-named read-outs stand apart in the source and are kept apart here.

T1 sequence (P23743 with tags, fused parts or gaps): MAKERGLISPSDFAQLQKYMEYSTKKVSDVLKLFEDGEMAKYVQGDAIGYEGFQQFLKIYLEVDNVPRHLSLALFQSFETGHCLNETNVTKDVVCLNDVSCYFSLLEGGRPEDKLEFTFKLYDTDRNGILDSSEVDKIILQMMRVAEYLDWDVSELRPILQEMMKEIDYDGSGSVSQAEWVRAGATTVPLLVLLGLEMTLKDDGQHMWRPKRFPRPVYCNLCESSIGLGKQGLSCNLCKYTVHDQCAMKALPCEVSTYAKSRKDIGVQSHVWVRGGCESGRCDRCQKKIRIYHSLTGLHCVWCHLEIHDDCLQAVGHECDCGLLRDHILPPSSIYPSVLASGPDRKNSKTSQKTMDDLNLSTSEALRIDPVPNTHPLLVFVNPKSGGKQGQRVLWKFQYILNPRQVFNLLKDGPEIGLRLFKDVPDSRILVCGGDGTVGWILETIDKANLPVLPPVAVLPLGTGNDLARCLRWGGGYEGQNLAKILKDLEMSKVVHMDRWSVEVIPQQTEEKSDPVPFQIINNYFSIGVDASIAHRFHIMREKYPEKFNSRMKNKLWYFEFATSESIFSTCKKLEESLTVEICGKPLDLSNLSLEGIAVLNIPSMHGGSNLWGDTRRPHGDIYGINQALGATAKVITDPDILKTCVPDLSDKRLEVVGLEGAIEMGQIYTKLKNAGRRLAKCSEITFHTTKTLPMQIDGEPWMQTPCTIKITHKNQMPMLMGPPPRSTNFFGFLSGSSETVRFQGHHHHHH
T2 sequence (Q13574 with tags, fused parts or gaps isoform Q13574-4): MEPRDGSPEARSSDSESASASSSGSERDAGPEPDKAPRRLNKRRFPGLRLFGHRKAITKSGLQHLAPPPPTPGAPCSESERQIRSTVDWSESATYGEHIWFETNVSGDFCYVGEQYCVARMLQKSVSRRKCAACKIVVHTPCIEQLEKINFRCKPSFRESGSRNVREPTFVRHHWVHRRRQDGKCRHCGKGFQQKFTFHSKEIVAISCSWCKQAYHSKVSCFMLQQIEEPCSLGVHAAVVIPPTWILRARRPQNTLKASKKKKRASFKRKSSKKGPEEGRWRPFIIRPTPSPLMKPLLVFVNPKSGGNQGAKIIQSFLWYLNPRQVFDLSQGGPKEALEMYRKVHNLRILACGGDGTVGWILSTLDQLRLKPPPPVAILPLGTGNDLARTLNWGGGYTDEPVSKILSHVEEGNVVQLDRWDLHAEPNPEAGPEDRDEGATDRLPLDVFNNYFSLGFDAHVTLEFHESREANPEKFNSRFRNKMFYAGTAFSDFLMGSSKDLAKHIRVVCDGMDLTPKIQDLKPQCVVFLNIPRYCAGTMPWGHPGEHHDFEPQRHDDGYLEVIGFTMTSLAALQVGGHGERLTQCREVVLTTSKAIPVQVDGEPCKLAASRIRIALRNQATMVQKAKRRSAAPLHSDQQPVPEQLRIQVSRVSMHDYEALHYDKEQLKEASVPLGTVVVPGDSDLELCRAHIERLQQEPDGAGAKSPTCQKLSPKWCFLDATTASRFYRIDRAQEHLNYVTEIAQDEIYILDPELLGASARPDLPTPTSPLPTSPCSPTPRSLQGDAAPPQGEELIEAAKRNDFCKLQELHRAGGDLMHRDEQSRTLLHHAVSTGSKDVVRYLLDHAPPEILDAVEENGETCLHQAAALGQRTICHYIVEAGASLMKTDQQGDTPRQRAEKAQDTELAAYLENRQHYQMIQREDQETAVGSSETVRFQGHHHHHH
Procedure for Human venous whole blood: Human Whole Blood IFN-γ Assay
Human venous whole blood (22.5 μL per well), obtained from healthy donors, was pre-treated with compounds for one hour at 37° C. in a humidified 95% air/5% CO2 incubator. The blood was stimulated with 2.5 μL anti-human CD3 and anti-CD28 mAb at a final concentration of 1 μg/mL each for 24 hours at 37° C. IFN-γ in the supernatants was measured using AlphLISA kit (Cat # AL217).

Consider `CC(c1ccc(C2(C#N)CC2)cc1)N1C[C@H](C)N(c2cc(=O)n(C)c3ccc(C#N)nc23)C[C@H]1C` (stereo partly drawn) [Example 1253], for which the EC50 in the assay with Human venous whole blood (setting [1]) is 1800 nM. In addition, the results for the IC50 on human DGKα (liposome (LIPGLO) assay) and at human DGKζ (liposome (LIPGLO) assay) were 1900 nM and 340 nM, respectively.

`CC(c1cccc(C(F)F)n1)N1C[C@H](C)N(c2cc(=O)n(C)c3ccc(C#N)nc23)C[C@H]1C` (stereo partly drawn) [Example 1222]: the concentration for a half-maximal effect (EC50) in the assay with Human venous whole blood (setting [1]) was determined as 520 nM. Also, the results for the IC50 at human DGKα (liposome (LIPGLO) assay) and at human DGKζ (liposome (LIPGLO) assay) were 16 nM and 110 nM, respectively.

Regarding `CC[C@H]1CN(C(c2ccc(Cl)cc2)c2ccc(Cl)cc2)[C@H](CC)CN1c1cc(=O)n(C)c2ccc(C#N)nc12` [Example 1032], in the assay on Human venous whole blood (setting [1]), the EC50 turned out to be 280 nM. Moreover, the IC50 at human DGKα (liposome (LIPGLO) assay) came to 310 nM; on human DGKζ (liposome (LIPGLO) assay), 280 nM.

On to `COC(=O)c1cccc(C(C)N2C[C@H](C)N(c3c(C#N)c(=O)n(C)c4ccc(C#N)nc34)C[C@H]2C)c1` (single isomer, unassigned) [Example 795], for which, in the assay with Human venous whole blood (setting [2]), the EC50 was 20000 nM. Further, the IC50 came to 13000 nM on human DGKα (DGKα liposome (LIPGLO) assay) and 160000 nM at human DGKζ (DGKζ liposome (LIPGLO) assay).

As for `CC[C@H]1CN(C(C)c2ccc(F)c(F)c2)[C@H](C)CN1c1cc(=O)n(C)c2ccc(C#N)nc12` (single isomer, unassigned) [Example 1140], in the assay on Human venous whole blood (setting [3]), the EC50 came to 3400 nM. In addition, the IC50 at human DGKα (liposome (LIPGLO) assay) was determined as 1600 nM; at human DGKζ (liposome (LIPGLO) assay), 990 nM.

Consider `CC(c1ccc(OC(F)(F)F)cc1)N1C[C@H](C)N(c2cc(=O)n(C)c3ccc(C#N)nc23)C[C@H]1CN1CCOCC1` (single isomer, unassigned) [Example 1416], for which the EC50 with Human venous whole blood (setting [3]) worked out at 20000 nM. Further, the IC50 was 48000 nM on human DGKα (liposome (LIPGLO) assay) and 52000 nM at human DGKζ (liposome (LIPGLO) assay).

For the compound `C[C@@H]1CN(c2cc(=O)n(C)c3ccc(C#N)nc23)[C@@H](C)CN1C(c1ccc(F)cc1)c1cnc(C2CC2)s1` (single isomer, unassigned) [Example 727], the EC50 with Human venous whole blood (setting [2]) stood at 1300 nM. Further, the values for the IC50 on human DGKα (DGKα liposome (LIPGLO) assay) and on human DGKζ (DGKζ liposome (LIPGLO) assay) were 37000 nM and 1600 nM, respectively.

Regarding `C[C@@H]1CN(c2cc(=O)n(C)c3ccc(C#N)nc23)[C@@H](C)CN1C(c1ccc(F)cc1)c1nnc(C2CC2)[nH]1` (single isomer, unassigned) [Example 766], the EC50 in the assay on Human venous whole blood (setting [2]) is 3500 nM. The results for the IC50 on human DGKα (DGKα liposome (LIPGLO) assay) and at human DGKζ (DGKζ liposome (LIPGLO) assay) were 660 nM and 9400 nM, respectively.

Turning to `C[C@@H]1CN(c2c(C#N)c(=O)n(C)c3ccc(C#N)nc23)[C@@H](C)CN1C(c1ccc(F)cc1)c1ccns1` (single isomer, unassigned) [Example 854], the EC50 in the assay on Human venous whole blood (setting [2]) was 10000 nM. Besides, the values for the IC50 at human DGKα (DGKα liposome (LIPGLO) assay) and at human DGKζ (DGKζ liposome (LIPGLO) assay) were 5100 nM and 1900 nM, respectively.

For `C[C@@H]1CN(c2cc(=O)n(C)c3ccc(C#N)nc23)[C@@H](C)CN1C(c1ccc(F)cc1)C(C)(C)O` (single isomer, unassigned) [Example 1308], the EC50 in the assay with Human venous whole blood (setting [3]) was determined as 2100 nM. The IC50 stood at 20000 nM at human DGKα (liposome (LIPGLO) assay) and 2200 nM on human DGKζ (liposome (LIPGLO) assay).

With `CC[C@H]1CN(C(C)c2ccc(OC)cc2)[C@H](CC)CN1c1cc(=O)n(C)c2ccc(C#N)nc12` (single isomer, unassigned) [Example 1366], the EC50 in the assay on Human venous whole blood (setting [3]) was 11 nM. Further, the IC50 on human DGKα (liposome (LIPGLO) assay) was 24 nM; at human DGKζ (liposome (LIPGLO) assay), 15 nM.

As for `C[C@@H]1CN(c2c(C#N)c(=O)n(C)c3ccc(C#N)nc23)CCN1C(c1cccc(F)c1)c1ccc(C(F)(F)F)cn1` (single isomer, unassigned) [Example 949], the concentration giving a half-maximal response (EC50) with Human venous whole blood (anti-CD3 plus anti-CD28, 24 hours, 3 μM reference compound = 100% activation) amounted to 20000 nM. For the same compound, the 50% inhibitory concentration (IC50) amounted to 6600 nM at human DGKα (DGKα liposome (LIPGLO) assay) and 1100 nM at human DGKζ (DGKζ liposome (LIPGLO) assay).

On to `C[C@@H]1CN(c2c(C#N)c(=O)n(C)c3ccc(C#N)nc23)CCN1C(c1ccc(F)cc1)c1cccc2c1OC(F)(F)O2` (single isomer, unassigned) [Example 939], for which the EC50 in the assay on Human venous whole blood (setting [2]) amounted to 2600 nM. Moreover, the results for the IC50 on human DGKα (DGKα liposome (LIPGLO) assay) and at human DGKζ (DGKζ liposome (LIPGLO) assay) were 83000 nM and 4000 nM, respectively.

As to `C[C@@H]1CN(c2cc(=O)n(C)c3ccc(C#N)nc23)[C@@H](C)CN1Cc1ccc(OC(F)(F)F)cc1` [Example 609], in the assay on Human venous whole blood (setting [1]), the EC50 was 2200 nM. Further, the IC50 on human DGKα (liposome (LIPGLO) assay) worked out at 21 nM; on human DGKζ (liposome (LIPGLO) assay), 13000 nM.

On to `C[C@@H]1CN(c2c(C#N)c(=O)n(C)c3ccc(C#N)nc23)CCN1Cc1cccc(C#N)n1` [Example 989], for which the EC50 with Human venous whole blood (setting [2]) was 20000 nM. Moreover, the IC50 was found to be 5200 nM on human DGKα (DGKα liposome (LIPGLO) assay) and 32000 nM on human DGKζ (DGKζ liposome (LIPGLO) assay).

Regarding `CC[C@H]1CN(C(c2ccc(F)cc2)c2ccc(C(F)(F)F)cn2)[C@H](C)CN1c1cc(=O)n(C)c2ccc(C#N)nc12` (single isomer, unassigned) [Example 1132], the EC50 with Human venous whole blood (setting [3]) worked out at 1600 nM. The IC50 at human DGKα (liposome (LIPGLO) assay) was determined as 620 nM; at human DGKζ (liposome (LIPGLO) assay), 790 nM.

Turning to `CCC(c1ccc(OC(C)C)cc1)N1C[C@H](C)N(c2cc(=O)n(C)c3ccc(C#N)nc23)C[C@H]1C` (single isomer, unassigned) [Example 1449], the concentration for a half-maximal effect (EC50) with Human venous whole blood (setting [3]) is 870 nM. For the same compound, the IC50 at human DGKα (liposome (LIPGLO) assay) worked out at 610 nM; on human DGKζ (liposome (LIPGLO) assay) it was 350 nM.

As usually defined, the EC50 is the concentration giving half of the maximal effect. Broadly, the IC50 is the concentration that gives 50% inhibition.
